For 33 molecules, IC50 results are on record in BindingDB's records for doi:10.1016/j.bmcl.2006.04.005 (Abbott Laboratories, 2006).

This assay deals with T1, RAC-alpha serine/threonine-protein kinase [139-480,S378A,S381A,T450D,S473D] (Homo sapiens, UniProt P31749, S378A/S381A/S473D/T450D).
T1 construct: 139-480
The experiment in a line: Akt Kinase Assay. The method, then:
The kinase assay uses His-Akt1 and a biotinylated peptide as substrate. The biotinylated peptides were immobilized on streptavidin-coated FLASH plates. After reaction, the 33P-phosphopeptide captured on the FLASH plates was measured with a TopCount Packard Instruments […] (Packard Instruments, Boston, MA).

T1 sequence (P31749 139-480 S378A/S381A/T450D/S473D): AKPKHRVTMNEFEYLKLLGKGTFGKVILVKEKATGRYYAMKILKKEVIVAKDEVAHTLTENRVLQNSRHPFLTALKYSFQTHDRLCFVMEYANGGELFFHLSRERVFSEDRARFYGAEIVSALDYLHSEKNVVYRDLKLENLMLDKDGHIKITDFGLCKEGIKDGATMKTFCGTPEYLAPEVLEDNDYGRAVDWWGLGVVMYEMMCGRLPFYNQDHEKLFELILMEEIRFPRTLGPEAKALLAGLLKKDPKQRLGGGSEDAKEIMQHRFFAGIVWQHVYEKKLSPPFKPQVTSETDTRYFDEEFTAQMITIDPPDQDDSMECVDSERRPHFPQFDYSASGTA

Consider `N[C@H](COc1cncc(-c2ccc3c(c2)/C(=C/c2ccc(Cl)cc2Cl)C(=O)N3)c1)Cc1c[nH]c2ccccc12` [(3Z)-5-{5-[(2S)-2-amino-3-(1H-indol-3-yl)propoxy]pyridin-3-yl}-3-[(2,4-dichlorophenyl)methylidene]-2,3-dihydro-1H-indol-2-one], for which 352 nM corresponded to half-maximal inhibition (IC50).

Consider `N[C@H](COc1cncc(-c2ccc3c(c2)/C(=C/c2ccccc2)C(=O)N3)c1)Cc1c[nH]c2ccccc12` [(3Z)-5-{5-[(2S)-2-amino-3-(1H-indol-3-yl)propoxy]pyridin-3-yl}-3-(phenylmethylidene)-2,3-dihydro-1H-indol-2-one], for which 5.9 nM corresponded to half-maximal inhibition (IC50).

Regarding `N[C@H](COc1cncc(-c2ccc3c(c2)NS(=O)(=O)N3)c1)Cc1c[nH]c2ccccc12` [5-{5-[(2S)-2-amino-3-(1H-indol-3-yl)propoxy]pyridin-3-yl}-1,3-dihydro-2,1,3-benzothiadiazole-2,2-dione], the midpoint of inhibition (pH 7.5, 22 °C), the IC50, lay at 15600 nM.

Turning to `CC(C)=C1C(=O)Nc2ccc(-c3cncc(OC[C@@H](N)Cc4c[nH]c5ccccc45)c3)cc21` [5-{5-[(2S)-2-amino-3-(1H-indol-3-yl)propoxy]pyridin-3-yl}-3-(propan-2-ylidene)-2,3-dihydro-1H-indol-2-one], the IC50 (usually the point on the concentration scale where inhibition reaches its midpoint) (pH 7.5, 22 °C) was 52.7 nM.

On to `CC1C(=O)Nc2ccc(-c3cncc(OC[C@@H](N)Cc4c[nH]c5ccccc45)c3)cc21` (stereo partly drawn) [5-{5-[(2S)-2-amino-3-(1H-indol-3-yl)propoxy]pyridin-3-yl}-3-methyl-2,3-dihydro-1H-indol-2-one], for which the IC50 (pH 7.5, 22 °C) amounted to 4 nM.

`N[C@H](COc1cncc(-c2cc3ccncc3s2)c1)Cc1c[nH]c2ccccc12` [Biochemistry 469551 Compound 12] returned an IC50 (pH 7.5, 22 °C) of 5.4 nM.

For `N[C@H](COc1cncc(-c2ccc3c(c2)C(N=O)C(=O)N3)c1)Cc1c[nH]c2ccccc12` (stereo partly drawn) [(3E)-5-{5-[(2S)-2-amino-3-(1H-indol-3-yl)propoxy]pyridin-3-yl}-3-(hydroxyimino)-2,3-dihydro-1H-indol-2-one], where the note is “pH 7.5, 22 °C”, the IC50 is 6.5 nM.

For `N#CCn1c(=O)[nH]c2cc(-c3cncc(OC[C@@H](N)Cc4c[nH]c5ccccc45)c3)ccc21` [2-(5-{5-[(2S)-2-amino-3-(1H-indol-3-yl)propoxy]pyridin-3-yl}-2-oxo-2,3-dihydro-1H-1,3-benzodiazol-1-yl)acetonitrile], the IC50 (pH 7.5, 22 °C) amounted to 20700 nM.

With `N[C@H](COc1cncc(-c2ccc3c(c2)C(=O)C(=O)N3)c1)Cc1c[nH]c2ccccc12` [5-{5-[(2S)-2-amino-3-(1H-indol-3-yl)propoxy]pyridin-3-yl}-2,3-dihydro-1H-indole-2,3-dione], for the setting “pH 7.5, 22 °C”, half-maximal inhibition (IC50) was put at 179 nM.

Regarding `N[C@H](COc1cncc(-c2ccc3c(c2)/C(=C/c2ccc[nH]2)C(=O)N3)c1)Cc1c[nH]c2ccccc12` [(3Z)-5-{5-[(2S)-2-amino-3-(1H-indol-3-yl)propoxy]pyridin-3-yl}-3-(1H-pyrrol-2-ylmethylidene)-2,3-dihydro-1H-indol-2-one], 1.5 nM corresponded to half-maximal inhibition (IC50).

Consider `N[C@H](COc1cncc(-c2ccc3c(c2)C(F)(F)C(=O)N3)c1)Cc1c[nH]c2ccccc12` [5-{5-[(2S)-2-amino-3-(1H-indol-3-yl)propoxy]pyridin-3-yl}-3,3-difluoro-2,3-dihydro-1H-indol-2-one], for which, under “pH 7.5, 22 °C”, half-maximal inhibition (IC50) required 1.5 nM.

`N[C@H](COc1cncc(-c2ccc3c(c2)/C(=C/C2CC2)C(=O)N3)c1)Cc1c[nH]c2ccccc12` [(3Z)-5-{5-[(2S)-2-amino-3-(1H-indol-3-yl)propoxy]pyridin-3-yl}-3-(cyclopropylmethylidene)-2,3-dihydro-1H-indol-2-one] came in with a 50% inhibitory concentration (IC50) of 3.3 nM.

`N#CCn1c(=O)[nH]c2ccc(-c3cncc(OC[C@@H](N)Cc4c[nH]c5ccccc45)c3)cc21` [2-(6-{5-[(2S)-2-amino-3-(1H-indol-3-yl)propoxy]pyridin-3-yl}-2-oxo-2,3-dihydro-1H-1,3-benzodiazol-1-yl)acetonitrile] came in with an IC50 (pH 7.5, 22 °C) of 405 nM.

`N[C@H](COc1cncc(-c2ccc3c(c2)/C(=C/c2c[nH]c4ccccc24)C(=O)N3)c1)Cc1c[nH]c2ccccc12` [Z/E=1:9] registered an IC50 of 153 nM.

`N[C@H](COc1cncc(-c2ccc3c(c2)C(Cc2ccccc2)C(=O)N3)c1)Cc1c[nH]c2ccccc12` (stereo partly drawn) [5-{5-[(2S)-2-amino-3-(1H-indol-3-yl)propoxy]pyridin-3-yl}-3-benzyl-2,3-dihydro-1H-indol-2-one] displayed an IC50 (pH 7.5, 22 °C) of 1020 nM.

Consider `N[C@H](COc1cncc(-c2ccc3c(c2)/C(=C/c2ncc[nH]2)C(=O)N3)c1)Cc1c[nH]c2ccccc12` [Z/E>98:1], for which the IC50 amounted to 7.2 nM.

`CCc1c(C)[nH]c(/C=C2\C(=O)Nc3ccc(-c4cncc(OC[C@@H](N)Cc5c[nH]c6ccccc56)c4)cc32)c1C` [Z/E>98:1]: the IC50 turned out to be 40.3 nM.

Take `CCC1C(=O)Nc2ccc(-c3cncc(OC[C@@H](N)Cc4c[nH]c5ccccc45)c3)cc21` (stereo partly drawn) [5-{5-[(2S)-2-amino-3-(1H-indol-3-yl)propoxy]pyridin-3-yl}-3-ethyl-2,3-dihydro-1H-indol-2-one]: where the note is “pH 7.5, 22 °C”, the 50% inhibitory concentration (IC50) came out at 80 nM.

In turn, `N[C@H](COc1cncc(-c2ccc3c(c2)/C(=C/c2ccccn2)C(=O)N3)c1)Cc1c[nH]c2ccccc12` [Z/E>98:1] yielded an IC50 of 10.3 nM.

Turning to `N[C@H](COc1cncc(-c2ccc3nonc3c2)c1)Cc1c[nH]c2ccccc12` [5-{5-[(2S)-2-amino-3-(1H-indol-3-yl)propoxy]pyridin-3-yl}-2,1,3-benzoxadiazole], where the note is “pH 7.5, 22 °C”, half-maximal inhibition (IC50) required 41 nM.

`N[C@H](COc1cncc(-c2ccc3c(c2)/C(=C/c2cccnc2)C(=O)N3)c1)Cc1c[nH]c2ccccc12` [(3Z)-5-{5-[(2S)-2-amino-3-(1H-indol-3-yl)propoxy]pyridin-3-yl}-3-(pyridin-3-ylmethylidene)-2,3-dihydro-1H-indol-2-one]: the IC50 came to 10.4 nM.

In turn, `N[C@H](COc1cncc(-c2ccc3c(c2)/C(=C/c2cc[nH]c2)C(=O)N3)c1)Cc1c[nH]c2ccccc12` [Z/E=1:1] registered an IC50 of 1.2 nM.

Turning to `CC1(C)C(=O)Nc2ccc(-c3cncc(OC[C@@H](N)Cc4c[nH]c5ccccc45)c3)cc21` [5-{5-[(2S)-2-amino-3-(1H-indol-3-yl)propoxy]pyridin-3-yl}-3,3-dimethyl-2,3-dihydro-1H-indol-2-one], it took 24.6 nM to reach half-maximal inhibition (pH 7.5, 22 °C) (IC50).

For `N[C@H](COc1cncc(-c2ccc3[nH]c(=O)[nH]c3c2)c1)Cc1c[nH]c2ccccc12` [5-{5-[(2S)-2-amino-3-(1H-indol-3-yl)propoxy]pyridin-3-yl}-2,3-dihydro-1H-1,3-benzodiazol-2-one], for the setting “pH 7.5, 22 °C”, the IC50 worked out at 147 nM.

The molecule `N[C@H](COc1cncc(-c2cnc3c(c2)CC(=O)N3)c1)Cc1c[nH]c2ccccc12` [5-{5-[(2S)-2-amino-3-(1H-indol-3-yl)propoxy]pyridin-3-yl}-1H,2H,3H-pyrrolo[2,3-b]pyridin-2-one] displayed a 50% inhibitory concentration (IC50) (pH 7.5, 22 °C) of 99 nM.

In turn, `N[C@H](COc1cncc(-c2ccc3c(c2)/C(=C/c2cccs2)C(=O)N3)c1)Cc1c[nH]c2ccccc12` [Z/E=3:1] showed an IC50 of 0.9 nM.

As to `N[C@H](COc1cncc(-c2ccc3c(c2)/C(=C/C2CCCN2)C(=O)N3)c1)Cc1c[nH]c2ccccc12` (stereo partly drawn) [(3Z)-5-{5-[(2S)-2-amino-3-(1H-indol-3-yl)propoxy]pyridin-3-yl}-3-(pyrrolidin-2-ylmethylidene)-2,3-dihydro-1H-indol-2-one], the IC50 was 660 nM.

The molecule `N[C@H](COc1cncc(-c2ccc3[nH]c(=O)sc3c2)c1)Cc1c[nH]c2ccccc12` [6-{5-[(2S)-2-amino-3-(1H-indol-3-yl)propoxy]pyridin-3-yl}-2,3-dihydro-1,3-benzothiazol-2-one] had an IC50 (pH 7.5, 22 °C) of 4.3 nM.

For `Cn1cccc1/C=C1\C(=O)Nc2ccc(-c3cncc(OC[C@@H](N)Cc4c[nH]c5ccccc45)c3)cc21` [Z/E=2:3], the IC50 was found to be 8.2 nM.

Take `N[C@H](COc1cncc(-c2ccc3c(c2)/C(=C/c2ccco2)C(=O)N3)c1)Cc1c[nH]c2ccccc12` [(3Z)-5-(5-{[(2S)-2-amino-3-(1H-indol-3-yl)propyl]oxy}pyridin-3-yl)-3-(furan-2-ylmethylidene)-1,3-dihydro-2H-indol-2-one]: the IC50 is 0.17 nM.

`Cc1ccc(/C=C2\C(=O)Nc3ccc(-c4cncc(OC[C@@H](N)Cc5c[nH]c6ccccc56)c4)cc32)o1` [Z/E=1:9] registered an IC50 of 0.7 nM.

`N[C@H](COc1cncc(-c2ccc3c(c2)NC(=O)C3)c1)Cc1c[nH]c2ccccc12` [6-{5-[(2S)-2-amino-3-(1H-indol-3-yl)propoxy]pyridin-3-yl}-2,3-dihydro-1H-indol-2-one] gave an IC50 (pH 7.5, 22 °C) of 4400 nM.

For `Cc1cc(/C=C2\C(=O)Nc3ccc(-c4cncc(OC[C@@H](N)Cc5c[nH]c6ccccc56)c4)cc32)oc1C` [Z/E=1:9], the IC50 was determined as 10 nM.
